Measurements: ChEMBL document CHEMBL1201862, “PubChem BioAssay data set” (2004)
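Cultured in 96-well plates, cells were exposed to test compound for 48 hours across five concentrations. GI50: concentration for 50% inhibition of growth.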 The source made the active and inactive calls. Cut-off read from the data, not from the text of the source: active = GI50 up to about 1.1 µM and inactive = higher.

Legend:
Assay in all cases: growth of human tumour cells (NCI), 48 h
MDA-MB-435 = tested on: MDA-MB-435
EKVX = tested on: EKVX
COLO 205 = tested on: COLO 205
NCI-H522 = tested on: NCI-H522
HOP-92 = tested on: HOP-92
MOLT-4 = tested on: MOLT-4
PC-3 = tested on: PC-3
KM12 = tested on: KM12
HCT-15 = tested on: HCT-15
SK-OV-3 = tested on: SK-OV-3
RPMI-8226 = tested on: RPMI-8226
SF-295 = tested on: SF-295
UACC-62 = tested on: UACC-62
OVCAR-4 = tested on: OVCAR-4
786-0 = tested on: 786-0
NCI-H226 = tested on: NCI-H226
SNB-19 = tested on: SNB-19
HCC 2998 = tested on: HCC 2998
TK-10 = tested on: TK-10
DU-145 = tested on: DU-145

In the case of CC1CC[C@@]2(OC1)O[C@H]1C[C@H]3[C@@H]4CC[C@H]5C[C@@H](OC6OC(CO)C(OC7OC(CO)C(OC8OC(CO)C(O)C(OC9OC(C)C(OC%10OC(C)C(O)C(O)C%10O)C(O)C9O)C8OC8OCC(O)C(O)C8O)C(O)C7O)C(O)C6O)CC[C@]5(C)[C@H]4CC(=O)[C@]3(C)[C@H]1[C@@H]2C (stereo not given in full), the GI50 (MDA-MB-435) is reported as 18.7 µM (inactive), the GI50 (EKVX) is reported as 22.1 µM (inactive) and the GI50 (COLO 205) is reported as 16.5 µM (inactive). For the same compound, the GI50 (NCI-H522) was 23.7 µM (inactive), the GI50 (HOP-92) was 19 µM (inactive) and the GI50 (MOLT-4) was 18.1 µM (inactive). The GI50 (PC-3) was 16.7 µM (inactive), the GI50 (KM12) was 18.2 µM (inactive) and the GI50 (HCT-15) was 19.1 µM. The GI50 (SK-OV-3) was 24.1 µM (inactive), the GI50 (RPMI-8226) was 16.2 µM (inactive) and the GI50 (SF-295) was 23.9 µM (inactive). For the same compound, the GI50 (UACC-62) was 18.8 µM (inactive), the GI50 (OVCAR-4) was 16.1 µM (inactive) and the GI50 (786-0) was 22.4 µM (inactive). The GI50 (NCI-H226) was 18.8 µM (inactive), the GI50 (SNB-19) was 20.5 µM (inactive) and the GI50 (HCC 2998) was 18.7 µM (inactive). The GI50 (TK-10) was 17.7 µM (inactive) and the GI50 (DU-145) was 19.9 µM (inactive).
